Where two headings read alike, the source gives them in different places.
What was measured:
[1] = target: T1, AChE from electric eel (EeAChE) (Electrophorus electricus, UniProt O42275); assay: Inhibition of AChE, modified Ellman's spectrophotometric method; format: biochemical, electric eel (Electrophorus electricus L.); conditions: for Selectivity AChE/BuChE: SI = IC50 for AChE/IC50 for BuChE, SI lower than 1 means selectivity for AChE
T1 construct: Acetylcholinesterase was obtained from electric eel (Electrophorus electricus L.); purchased Sigma-Aldrich (Prague, Czech Republic); host or cells: electric eel (natural source)
T1 sequence (O42275 24-633): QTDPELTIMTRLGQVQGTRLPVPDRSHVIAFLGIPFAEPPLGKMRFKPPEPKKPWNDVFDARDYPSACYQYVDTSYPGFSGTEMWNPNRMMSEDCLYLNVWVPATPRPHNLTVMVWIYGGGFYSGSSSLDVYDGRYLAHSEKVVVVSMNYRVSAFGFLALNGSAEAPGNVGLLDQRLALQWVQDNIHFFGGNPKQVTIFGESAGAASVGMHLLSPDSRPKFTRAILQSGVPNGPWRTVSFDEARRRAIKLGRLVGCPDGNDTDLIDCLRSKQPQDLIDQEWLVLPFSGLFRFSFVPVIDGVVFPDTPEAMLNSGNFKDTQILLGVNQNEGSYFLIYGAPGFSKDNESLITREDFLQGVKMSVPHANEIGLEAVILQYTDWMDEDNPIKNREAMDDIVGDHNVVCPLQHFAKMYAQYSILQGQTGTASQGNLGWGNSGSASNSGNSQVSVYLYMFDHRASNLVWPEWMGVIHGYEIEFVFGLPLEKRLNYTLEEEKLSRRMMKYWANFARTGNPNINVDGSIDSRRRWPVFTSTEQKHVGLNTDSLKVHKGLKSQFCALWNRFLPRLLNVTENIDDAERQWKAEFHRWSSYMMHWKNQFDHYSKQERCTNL
Protocol: (§1) The IC50 values were determined using the spectrophotometric Ellman’s method modified according to Zdražilová et al., which is a simple, rapid and direct method to determine the SH and -S-S- group content in proteins. This method is widely used for the screening of the efficiency of cholinesterases inhibitors. The enzymatic activity is measured indirectly by quantifying the concentration of the 5-thio-2-nitrobenzoic acid ion formed in the reaction between the thiol reagent 5,5′-dithio-bis(2-nitrobenzoic acid) and thiocholine, a product of substrate hydrolysis (i.e., acetylthiocholine; ATCH) by cholinesterases.
(§2) The enzyme activity in final reaction mixture (2000 µL) was 0.2 U/mL, concentration of acetylthiocholine (or butyrylthiocholine, BTCH) 40 µM and concentration of 5,5′-dithio-bis(2-nitrobenzoic acid) 0.1 mM for all reactions. The tested compounds were dissolved in DMSO and then diluted in demineralized water to the concentration of 1 µM. […] All measurements were carried in triplicate and the average values of reaction rate (v0-uninhibited reaction, vi-inhibited reaction) were used for construction of the dependence v0/vi vs. concentration of inhibitor. From obtained equation of regression curve, the value of IC50 was calculated (based on the definition of IC50).
(§3) Acetylcholinesterase was obtained from electric eel (Electrophorus electricus L.) and butyrylcholinesterase was from an equine serum.
(§4) Thirty-six benzamides 1–4l were evaluated as potential inhibitors of AChE from electric eel (EeAChE) and BuChE from equine serum (EqBuChE) using Ellman’s spectrophotometric method modified according to Zdražilová et al.. Their efficacy is expressed as IC50, i.e., the concentration required for 50% inhibition of the enzymatic activity. Based on inhibition of both cholinesterases, we calculated selectivity indexes (SI) as the ratio of IC50 value for AChE/IC50 value for BuChE to express the selectivity quantitatively (Table 1).

[2] = target: T2, BuChE from equine serum (EqBuChE) (Equus caballus, UniProt P81908); assay: Inhibition of BuChE, modified Ellman's spectrophotometric method; format: biochemical; conditions: for IC50: mean ± SD, n = three experiments
T2 construct: butyrylcholinesterase was from an equine serum; purchased Sigma-Aldrich (Prague, Czech Republic); host or cells: equine serum (natural source)
T2 sequence (P81908 whole entry): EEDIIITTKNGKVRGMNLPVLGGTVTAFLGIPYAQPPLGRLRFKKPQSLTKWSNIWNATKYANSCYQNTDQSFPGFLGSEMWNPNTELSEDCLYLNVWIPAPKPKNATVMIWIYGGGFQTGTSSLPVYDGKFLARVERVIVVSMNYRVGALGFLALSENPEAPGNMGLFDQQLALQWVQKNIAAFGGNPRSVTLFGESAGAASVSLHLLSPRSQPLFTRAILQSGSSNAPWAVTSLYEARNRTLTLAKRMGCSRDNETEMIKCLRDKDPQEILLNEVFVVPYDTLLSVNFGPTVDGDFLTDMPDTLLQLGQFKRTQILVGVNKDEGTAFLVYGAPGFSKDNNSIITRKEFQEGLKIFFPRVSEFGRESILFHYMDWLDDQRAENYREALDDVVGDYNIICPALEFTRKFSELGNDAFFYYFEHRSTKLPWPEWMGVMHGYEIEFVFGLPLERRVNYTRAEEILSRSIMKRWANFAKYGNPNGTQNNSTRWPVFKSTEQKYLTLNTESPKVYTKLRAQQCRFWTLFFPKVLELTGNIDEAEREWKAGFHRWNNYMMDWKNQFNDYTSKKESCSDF
Protocol: as §1, §2, §3, §4

[3] = target: T1, AChE from electric eel (EeAChE); conditions: SI = IC50 for AChE/IC50 for BuChE; cited from earlier work
[4] = ratio of IC50 values vs parent 3k
[5] = mean ± SD, n = three experiments, read-out: IC50 (EeAChE)

Row | SMILES | Enhancement of AChE inhibition compared to parent 3k [1, 4] [times] | Enhancement of BuChE inhibition compared to parent 3k [2, 4] | Selectivity AChE/BuChE [3] | Selectivity AChE/BuChE [1] | IC50 [1, 5] [µM] | IC50 ([2]; read-out: IC50 (EqBuChE)) [µM] | IC50 [1] [µM] | IC50 ([2]; IC50 (EqBuChE)) [µM]
1 | CCOP(=S)(OCC)Oc1cc(Cl)ccc1C(=O)Nc1ccc(C(F)(F)F)cc1 [Compound 5b] | 6.6 | up to 20.3 times | 0.50 |  |  |  |  | 
2 | O=C(Nc1cc(Cl)c(Cl)c(Cl)c1)c1cc(Cl)ccc1O [Compound 2e, 5-Chloro-N-(3,4,5-trichlorophenyl)-2-hydroxybenzamide] |  |  |  | 0.50 | 51.06 ± 0.49 | 102.7 ± 0.97 |  | 
3 | O=C(Nc1ccc(Cl)cc1)c1cc(Br)ccc1O [Compound 4b] |  |  |  | 0.66 |  |  | 85.8 ± 6.1 | 131 ± 3.99
4 | O=C(Nc1ccc(Cl)c(Cl)c1)c1cc(Br)ccc1O [Compound 4c] |  |  |  | 0.50 | 60.8 ± 3.65 | 123 ± 7.2 |  | 
5 | O=C(Nc1ccc(F)cc1)c1ccc(Cl)cc1O [Compound 3i] |  |  |  | 0.41 |  |  | 62.8 ± 1.53 | 152 ± 7.58
6 | O=C(Nc1ccc(Br)cc1)c1cc(Cl)ccc1O [Compound 2g] |  |  |  | 0.49 | 58.2 ± 4.87 | 119 ± 6.65 |  | 
7 | O=C(Nc1cc(C(F)(F)F)cc(C(F)(F)F)c1)c1cc(Br)ccc1O [Compound 4l] |  |  |  | 0.91 |  |  | 48.5 ± 1.07 | 53.5 ± 3.2
8 | O=C(Nc1ccc(C(F)(F)F)cc1)c1cc(Br)ccc1O [Compound 4k] |  |  |  | 0.33 |  |  | 44.8 ± 3.44 | 134.8 ± 0.86
9 | O=C(Nc1cccc(Br)c1)c1ccc(Cl)cc1O [Compound 3f] |  |  |  | 0.36 | 60.03 ± 0.42 | 168 ± 2.06 |  | 
10 | O=C(Nc1cc(C(F)(F)F)cc(C(F)(F)F)c1)c1cc(Cl)ccc1O [Compound 2l] |  |  |  | 0.78 | 50.2 ± 0.88 | 64.4 ± 1.34 |  | 
11 | O=C(Nc1cccc(C(F)(F)F)c1)c1cc(Br)ccc1O [Compound 4j, 5-bromo-2-hydroxy-N-[3-(trifluoromethyl)phenyl]benzamide] |  |  |  | 0.36 |  |  | 42.67 ± 0.18 | 117 ± 2.23
12 | O=C(Nc1cccc(C(F)(F)F)c1)c1ccc(Cl)cc1O [Compound 3j] |  |  |  | 0.42 |  |  | 68.3 ± 3.78 | 163 ± 11.7
13 | O=C(Nc1cc(Cl)cc(Cl)c1)c1ccc(Cl)cc1O [Compound 3d, 4-Chloro-N-(3,5-dichlorophenyl)-2-hydroxybenzamide] |  |  |  | 0.36 | 50.15 ± 0.26 | 141 ± 2.8 |  | 
14 | O=C(Nc1cc(Cl)cc(Cl)c1)c1cc(Cl)ccc1O [Compound 2d, 5-Chloro-N-(3,5-dichlorophenyl)-2-hydroxybenzamide] |  |  |  | 0.41 | 46.2 ± 0.63 | 112 ± 7.98 |  | 
15 | O=C(Nc1cccc(F)c1)c1ccc(Cl)cc1O [Compound 3h] |  |  |  | 0.42 |  |  | 60.8 ± 1.74 | 146 ± 4.07
16 | O=C(Nc1cccc(Cl)c1)c1ccc(Cl)cc1O [Compound 3a] |  |  |  | 0.43 |  |  | 58.1 ± 1.2 | 134.3 ± 0.24
17 | O=C(Nc1cc(Cl)c(Cl)c(Cl)c1)c1ccc(Cl)cc1O [Compound 3e, 4-Chloro-N-(3,4,5-trichlorophenyl)-2-hydroxybenzamide] |  |  |  | 0.44 | 57.8 ± 4.05 | 132 ± 4.31 |  | 
18 | O=C(Nc1cccc(F)c1)c1cc(Cl)ccc1O [Compound 2h] |  |  |  | 0.38 |  |  | 58.6 ± 3.98 | 154 ± 8.38
